Experimental data reported in patent publication US20220008388A1 (Certego Therapeutics Inc., priority 2018, published 2022).
“Also recorded” adds a separate entry of the source. Where two headings read alike, the source gives them in different places.

Columns and labels:
[1] = system: immediate early gene c-fos expression in the brain; conditions: mouse
Method: (A) Mice were treated with a drug or vehicle solution for the control group using either intraperitoneal (i.p.), per oral (p.o.). subcutaneous (s.c.), intramuscular (i.m.) or intravenous (i.v.) delivery.
(C) After the aforementioned c-fos induction period, the mice were sacrificed and the c-fos induction was visualized using whole-brain immunostaining. The brains were then chemically cleared and imaged by light-sheet fluorescent microscopy (LSFM).
(D) The whole-brain scans are depicted as serial section datasets with an XYZ resolution of about 4×4×5 microns.
(E) The c-fos-positive cells were detected in these datasets using custom algorithms.
(F) The whole-brain distribution of the detected c-fos-positive cells was then represented in 3D as a spatial map of centroid points in the 3D space of the mouse brain.
(G) This 3D map distribution was registered to a reference mouse brain and spatially voxelized using overlapping 150-micron sphere voxels.
This method called “pharmacomapping” (implemented as a fee for service by CRO Certerra, Inc. Farmingdale, N.Y.) is based on a proprietary and largely automated drug-screening platform that comprises whole-brain detection of drug-evoked neuronal activation represented by drug-evoked expression of the immediate early gene (IEG) c-fos. Until now, the detection of c-fos as a marker of brain activation required time-consuming, laborious methods such as in situ hybridization or immunohistochemistry in brain tissue sections, followed by mounting the sections on microscopic slides, manual imaging, and largely visual quantification. Nevertheless, over the last two decades a number of studies used these methods to test drug-evoked activity in the mouse or rat brain for various psychoactive medications, including antipsychotics, antidepressants, stimulants and anxiolytics (Engber et al., 1998; Salminen et al., 1996; SEMBA et al., 1996; Slattery et al., 2005; Sumner et al., 2004).
In contrast to the older methods, the pharmacomapping method uses largely automated and standardized whole-brain immunostaining and brain clearing together with advanced microscopy (light-sheet fluorescence microscopy, LSFM), computational (e.g. machine learning) and statistical methods (FIG. 1; see, for example, the published U.S. Patent Application No. 2014/0297199, the content of which is incorporated by reference herein in its entirety). The first generation of this platform used serial two-photon tomography (STPT) as a method for imaging and c-fos-GFP mice expressing green fluorescent protein (GFP) under the control of the c-fos promoter (see, e.g., published U.S. Patent Application No. 2014/0297199, the content of which is incorporated by reference herein in its entirety).
The second generation of the pharmacomapping platform currently employed by Certerra uses whole-brain immunostaining and clearing procedure named iDISCO+ and whole-brain imaging by light-sheet fluorescence microscopy to detect c-fos-positive neurons in wild type mice (Renier et al., 2016).

[2] = cited from earlier work
[3] = system: d-amphetamine-induced hyperactivity; experiment: d-amphetamine-induced hyperlocomotion, rodent model of mania; type: in vivo; conditions: mice, 20 min before d-amphetamine 3.5 mg/kg
[4] = cited from earlier work; remark: listed apart in the source
[5] = female mother rats; cited from earlier work

Row | Structure (SMILES) | brain activation (c-fos induction) ([1]; gaboxadol 3 mg/kg alone (HED about 15 mg)) | brain activation (c-fos induction) ([1]; gaboxadol 6 mg/kg alone (HED about 30 mg)) | brain activation (c-fos induction) ([1]; gaboxadol 20 mg/kg (HED about 100 mg)) | adverse side-effects in clinical trials ([2]; human doses equivalent to the mouse 6 mg/kg dose) | effects in sleep onset and sleep maintenance ([2]; insomnia, three-month efficacy study) | moderation of d-amphetamine-induced locomotion (ambulatory counts) ([3]; gaboxadol 3 mg/kg, Anova p=0.007, Fisher's PLSD p=0.6) | brain activation (c-fos induction) ([1]; lithium 85 mg/kg alone (HED about 425 mg)) | brain activation (c-fos induction) ([1]; lithium 120 mg/kg (HED about 600 mg)) | brain activation (c-fos induction) ([1]; lithium 150 mg/kg alone (HED about 750 mg)) | brain activation (c-fos induction) ([1]; lithium 200 mg/kg alone (HED about 1000 mg)) | brain activation (c-fos induction) ([1]; lithium 300 mg/kg (HED about 1500 mg)) | brain activation (c-fos induction) ([1]; lithium 400 mg/kg as printed) | moderation of d-amphetamine-induced locomotion (ambulatory counts) ([3]; lithium 14.1 mg/kg) | people who stopped taking lithium because of adverse events ([4]; BD patients, epidemiological study (Öhlund et al., 2018)) [%] | patients showing good long-term efficacy ([4]; BD patients, long-term maintenance (Scott et al., 2017)) | lithium concentration in drinking water with anti-suicide effect ([4]; drinking water) | serum lithium concentration associated with mild toxicity ([4]; human) [mmol/L] | serum lithium concentration that can be life-threatening ([4]; human) | serum lithium concentration for maintenance treatment ([4]; maintenance of bipolar disorder) [mmol/L] | state of alertness compared to control rats fed placebo [5]
1 | Oc1noc2c1CCNC2 [gaboxadol, 4,5,6,7-tetrahydroisoxazolo (5,4-c) pyridin-3-ol] | did not elicit any detectable c-fos signaling activity; also recorded: neither gaboxadol at 3 mg/kg nor lithium at 85 mg/kg alone evoked any brain activation; also recorded: nor gaboxadol at 3 mg/kg (middle row; human equivalent dose about 15 mg) induced any brain activation on their own | moderate brain activation | broad cortical activation | no adverse side-effects | failed to show significant effects | only modestly |  |  |  |  |  |  |  |  |  |  |  |  |  | 
2 | O=C([O-])[O-].[Li+].[Li+] [lithium, lithium carbonate] |  |  |  |  |  |  | did not elicit any detectable c-fos signaling activity; also recorded: neither gaboxadol at 3 mg/kg nor lithium at 85 mg/kg alone evoked any brain activation; also recorded: neither lithium at 85 mg/kg (top row; human equivalent dose about 425 mg), nor gaboxadol at 3 mg/kg (middle row; human equivalent dose about 15 mg) induced any brain activation on their own | modest to moderate activation of a few structures | modest to moderate activation of a few structures; also recorded: moderate brain activation | considerably broader activation; also recorded: moderate brain activation | prominently activated; also recorded: closely matched that of gaboxadol at 20 mg/kg; also recorded: broad activation pattern | considerably broader activation | had no behavioral effect; also recorded: not moderated | 62 | approximately 30% | less than 150 μg/L | 1.2 to 2.5 | greater than 3.5 mmol/L | 0.6 to 1.0 | low
3 | [6Li] [lithium-6] |  |  |  |  |  |  |  |  |  |  |  |  |  |  |  |  |  |  |  | very high
